Assay results reported in patent US10208019B2, “GLP-1 receptor agonists and uses thereof” (Pfizer Inc., priority 2016, dated 2019).
Where two headings read alike, the source gives them in different places.

Biological target: human GLP-1R (Homo sapiens, UniProt P43220, G168S)
Assay: CHO GLP-1R Clone H6—Assay 1: HTRF cAMP cell-based functional agonist assay (high GLP-1R density)
Conditions: for EC50: CHO GLP-1R Clone H6, cAMP HTRF, geometric mean; for Emax: read-out: Assay 1 Emax (%), CHO GLP-1R Clone H6; for Emax / Assay 1 Emax (%): relative to saturating concentration of full agonist GLP-1 (1 μM), arithmetic mean; for Assay 1 Emax (%): CHO GLP-1R Clone H6

human GLP-1R, sequence (P43220 24-463 G168S limits assumed): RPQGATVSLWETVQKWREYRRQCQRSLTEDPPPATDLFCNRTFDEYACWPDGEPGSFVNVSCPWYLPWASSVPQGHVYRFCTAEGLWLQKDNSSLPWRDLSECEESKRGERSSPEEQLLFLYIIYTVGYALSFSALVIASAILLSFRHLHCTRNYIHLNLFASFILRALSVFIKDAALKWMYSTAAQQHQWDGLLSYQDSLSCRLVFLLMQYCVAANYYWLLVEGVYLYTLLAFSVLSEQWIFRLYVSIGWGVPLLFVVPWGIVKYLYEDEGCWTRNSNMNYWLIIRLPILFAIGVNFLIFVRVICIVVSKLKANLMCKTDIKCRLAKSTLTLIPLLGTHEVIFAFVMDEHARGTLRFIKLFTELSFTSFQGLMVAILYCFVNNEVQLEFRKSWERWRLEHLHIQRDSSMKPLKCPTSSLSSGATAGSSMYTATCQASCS

Compound | EC50 (read-out: Assay 1 EC50) [nM] | Emax [%] | Assay 1 Emax (%) | EC50 (Assay 1 EC50 (nM)) [nM]
O=C(O)c1ccc2nc(CN3CCC(c4cccc(OCc5ccc(Cl)cc5F)n4)CC3)n(Cc3ccc(Cl)cn3)c2c1 [Example 11A-02, 2-[(4-{6-[(4-chloro-2-fluorobenzyl)oxy]pyridin-2-yl}piperidin-1-yl)methyl]-1-[(5-chloropyridin-2-yl)methyl]-1H-benzimidazole-6-carboxylic acid] | > 15000 | 100 | – | –
Cc1ccccc1COc1cccc(C2CCN(Cc3nc4ccc(C(=O)O)cc4n3C)CC2)n1 [Example 9A-11, 1-methyl-2-[(4-{6-[(2-methylbenzyl)oxy]pyridin-2-yl}piperidin-1-yl)methyl]-1H-benzimidazole-6-carboxylic acid] | 1600 | 83 | – | –
COCCn1c(CN2CCN(c3cccc(OCc4ccc(Cl)cc4F)n3)CC2(C)C)nc2ccc(C(=O)O)cc21 [Example 12A-06, 2-[(4-{6-[(4-chloro-2-fluorobenzyl)oxy]pyridin-2-yl}-2,2-dimethylpiperazin-1-yl)methyl]-1-(2-methoxyethyl)-1H-benzimidazole-6-carboxylic acid] | 510 | 64 | – | –
O=C(O)c1ccc2nc(CN3CCC(c4cccc(OCc5ccc(Cl)cc5F)n4)CC3)n(CC3CCOCC3)c2c1 [Example 11A-49, 2-[(4-{6-[(4-chloro-2-fluorobenzyl)oxy]pyridin-2-yl}piperidin-1-yl)methyl]-1-(tetrahydro-2H-pyran-4-ylmethyl)-1H-benzimidazole-6-carboxylic acid] | 380 | 68 | – | –
Cn1c(CN2CCC(c3cccc(OCc4cccc(F)c4F)n3)CC2)nc2ccc(C(=O)O)cc21 [Example 9A-08, 2-[(4-{6-[(2,3-difluorobenzyl)oxy]pyridin-2-yl}piperidin-1-yl)methyl]-1-methyl-1H-benzimidazole-6-carboxylic acid] | 2400 | 87 | – | –
CC(C)(C)n1cnnc1Cn1c(CN2CCC(c3cccc(OCc4ccc(Cl)cc4F)n3)CC2)nc2ccc(C(=O)O)cc21 [Example 10A-46] | 1700 | 80 | – | –
Cc1nc(Cn2c(CN3CCC(c4cccc(OCc5ccc(Cl)cc5F)n4)CC3)nc3ccc(C(=O)O)cc32)c(C)o1 [Example 11A-55, 2-[(4-{6-[(4-chloro-2-fluorobenzyl)oxy]pyridin-2-yl}piperidin-1-yl)methyl]-1-[(2,5-dimethyl-1,3-oxazol-4-yl)methyl]-1H-benzimidazole-6-carboxylic acid] | 520 | 80 | – | –
COCCN1CCC(Cn2c(CN3CCC(c4cccc(OCc5ccc(Cl)cc5F)n4)CC3)nc3ccc(C(=O)O)cc32)CC1 [Example 11A-12, 2-[(4-{6-[(4-chloro-2-fluorobenzyl)oxy]pyridin-2-yl}piperidin-1-yl)methyl]-1-{[1-(2-methoxyethyl)piperidin-4-yl]methyl}-1H-benzimidazole-6-carboxylic acid] | > 20000 | – | – | –
N#Cc1ccc(COc2cccc(C3CCN(Cc4nc5ccc(C(=O)O)cc5n4CC4CCOC4)CC3)n2)c(F)c1 (single isomer, unassigned; enantiomer 2) [Example 14A-10, 2-[(4-{6-[(4-cyano-2-fluorobenzyl)oxy]pyridin-2-yl}piperidin-1-yl)methyl]-1-(tetrahydrofuran-3-ylmethyl)-1H-benzimidazole-6-carboxylic acid,enantiomer 2] | – | – | 64 | –
CC(C)n1c(CN2CCC(c3cccc(OCc4ccc(Cl)cc4F)n3)CC2)nc2ccc(C(=O)O)cc21 [Example 10A-40] | 1200 | – | 53 | –
Cc1cc(C)n(CCn2c(CN3CCC(c4cccc(OCc5ccc(Cl)cc5F)n4)CC3)nc3ccc(C(=O)O)cc32)n1 [Example 11A-57, 2-[(4-{6-[(4-chloro-2-fluorobenzyl)oxy]pyridin-2-yl}piperidin-1-yl)methyl]-1-[2-(3,5-dimethyl-1H-pyrazol-1-yl)ethyl]-1H-benzimidazole-6-carboxylic acid] | 1100 | 65 | – | –
Cn1c(CN2CCC(c3cccc(OCc4cccc(C#N)c4)n3)CC2)nc2ccc(C(=O)O)cc21 [Example 9A-12, 2-[(4-{6-[(3-cyanobenzyl)oxy]pyridin-2-yl}piperidin-1-yl)methyl]-1-methyl-1H-benzimidazole-6-carboxylic acid] | > 17000 | 100 | – | –
COCCn1c(CN2CCN(c3cccc(OCc4ccc(Cl)cc4F)n3)[C@@H](CO)C2)nc2ccc(C(=O)O)cc21 [Example 1A-15, 2-{[(3R)-4-{6-[(4-chloro-2-fluorobenzyl)oxy]pyridin-2-yl}-3-(hydroxymethyl)piperazin-1-yl]methyl}-1-(2-methoxyethyl)-1H-benzimidazole-6-carboxylic acid] | > 20000 | – | – | –
CN1CCC(Cn2c(CN3CCC(c4cccc(OCc5ccc(Cl)cc5F)n4)CC3)nc3ccc(C(=O)O)cc32)CC1 [Example 11A-08, 2-[(4-{6-[(4-chloro-2-fluorobenzyl)oxy]pyridin-2-yl}piperidin-1-yl)methyl]-1-[(1-methylpiperidin-4-yl)methyl]-1H-benzimidazole-6-carboxylic acid] | > 20000 | – | – | –
COCCn1c(CN2CCC(c3cccc(OCc4ccc(Cl)cc4F)n3)CC2C)nc2ccc(C(=O)O)cc21 (single isomer, unassigned) [Example 13A-01, trans 2-{[4-{6-[(4-Chloro-2-fluorobenzyl)oxy]pyridin-2-yl}-2-methylpiperidin-1-yl]methyl}-1-(2-methoxyethyl)-1H-benzimidazole-6-carboxylic acid] | – | – | 58 | 1200
Cn1cnc(Cn2c(CN3CCC(c4cccc(OCc5ccc(Cl)cc5F)n4)CC3)nc3ccc(C(=O)O)cc32)c1 [Example 10A-30] | 550 | 71 | – | –
Cc1ccc(Cn2c(CN3CCC(c4cccc(OCc5ccc(Cl)cc5F)n4)CC3)nc3ccc(C(=O)O)cc32)cn1 [Example 11A-61, 2-[(4-{6-[(4-chloro-2-fluorobenzyl)oxy]pyridin-2-yl}piperidin-1-yl)methyl]-1-[(6-methylpyridin-3-yl)methyl]-1H-benzimidazole-6-carboxylic acid] | 1900 | 79 | – | –
O=C(O)c1ccc2nc(CN3CCC(c4cccc(OCc5ccc(Cl)cc5F)n4)CC3)n(Cc3n[nH]c(C4CC4)n3)c2c1 [Example 11A-64, 2-[(4-{6-[(4-chloro-2-fluorobenzyl)oxy]pyridin-2-yl}piperidin-1-yl)methyl]-1-[(5-cyclopropyl-1H-1,2,4-triazol-3-yl)methyl]-1H-benzimidazole-6-carboxylic acid] | 2900 | 88 | – | –
CN1CCOC(CCn2c(CN3CCC(c4cccc(OCc5ccc(Cl)cc5F)n4)CC3)nc3ccc(C(=O)O)cc32)C1 (centres unmarked) [Example 11A-11, 2-[(4-{6-[(4-chloro-2-fluorobenzyl)oxy]pyridin-2-yl}piperidin-1-yl)methyl]-1[2-(4-methylmorpholin-2-yl)ethyl]-1H-benzimidazole-6-carboxylic acid] | > 20000 | – | – | –

Next, values leading:

EC50 (read-out: Assay 1 EC50) [nM] | Emax [%] | Assay 1 Emax (%) | EC50 (Assay 1 EC50 (nM)) [nM] | Compound
16 | 85 | – | – | COCCn1c(CN2CCC(c3cccc(OCc4ccc(Cl)cc4F)n3)CC2)nc2ccc(C(=O)O)cc21 [Example 1A-02, 2-[(4-{6-[(4-chloro-2-fluorobenzyl)oxy]pyridin-2-yl}piperidin-1-yl)methyl]-1-(2-methoxyethyl)-1H-benzimidazole-6-carboxylic acid]
190 | 71 | – | – | Cc1nnc(CCn2c(CN3CCC(c4cccc(OCc5ccc(Cl)cc5F)n4)CC3)nc3ccc(C(=O)O)cc32)o1 [Example 10A-28]
75 | 69 | – | – | CN(C)CCn1c(CN2CCC(c3cccc(OCc4ccc(Cl)cc4F)n3)CC2)nc2ccc(C(=O)O)cc21 [Example 10A-11]
300 | 66 | – | – | COC[C@@H](C)n1c(CN2CCC(c3cccc(OCc4ccc(Cl)cc4F)n3)CC2)nc2ccc(C(=O)O)cc21 [Example 11A-46, 2-[(4-{6-[(4-chloro-2-fluorobenzyl)oxy]pyridin-2-yl}piperidin-1-yl]methyl]-1-[(2R)-1-methoxypropan-2-yl]-1H-benzimidazole-6-carboxylic acid]
3.4 | 79 | – | – | O=C(O)c1ccc2nc(CN3CCC(c4cccc(OCc5ccc(Cl)cc5F)n4)CC3)n(C[C@H]3CCOC3)c2c1 [Example 10A-72, 2-[(4-{6-[(4-chloro-2-fluorobenzyl)oxy]pyridin-2-yl}piperidin-1-yl)methyl]-1-[(3R)-tetrahydrofuran-3-ylmethyl]-1H-benzimidazole-6-carboxylic acid]
130 | 72 | – | – | Cn1ccnc1Cn1c(CN2CCC(c3cccc(OCc4ccc(Cl)cc4F)n3)CC2)nc2ccc(C(=O)O)cc21 [Example 10A-38]
340 | 74 | – | – | Cc1nc2nc(CN3CCC(c4cccc(OCc5ccc(Cl)cc5F)n4)CC3)n(C)c2cc1C(=O)O [Example 2A-12, 2-[(4-{6-[(4-chloro-2-fluorobenzyl)oxy]pyridin-2-yl}piperidin-1-yl)methyl]-1,5-dimethyl-1H-imidazo[4,5-b]pyridine-6-carboxylic acid]
3.2 | 68 | – | – | CC1(Cn2c(CN3CCC(c4cccc(OCc5ccc(Cl)cc5F)n4)CC3)nc3ccc(C(=O)O)cc32)CCO1 (centres unmarked) [Example 10A-53]
210 | 79 | – | – | COCCn1c(CN2CCC(c3cccc(OCc4ccc(Cl)cc4F)n3)CC2)nc2ncc(C(=O)O)c(C)c21 [Example 2A-11, 2-[(4-{6-[(4-chloro-2-fluorobenzyl)oxy]pyridin-2-yl}piperidin-1-yl)methyl]-1-(2-methoxyethyl)-7-methyl-1H-imidazo[4,5-b]pyridine-6-carboxylic acid]
190 | 80 | – | – | Cn1cc(Cn2c(CN3CCC(c4cccc(OCc5ccc(Cl)cc5F)n4)CC3)nc3ccc(C(=O)O)cc32)cn1 [Example 11A-43, 2-[(4-{6-[(4-chloro-2-fluorobenzyl)oxy]pyridin-2-yl}piperidin-1-yl)methyl]-1-[(1-methyl-1H-pyrazol-4-yl)methyl]-1H-benzimidazole-6-carboxylic acid]
